Experimental data published in PMC6901909, “Synergy Pattern of Short Cationic Antimicrobial Peptides Against Multidrug-Resistant Pseudomonas aeruginosa” (Frontiers in Microbiology, 2019).
In brackets after ≈: the same amount, converted by molar mass. Peptide text beside a SMILES is read from it.

Key:
[1] = tested on: MDR P. aeruginosa PA 919; test: microbe, parasite or virus in culture; format: cell-based, Pseudomonas aeruginosa
Method: (§1) We selected six different P. aeruginosa isolates that were described as MDR and had been isolated from clinical and municipal waste water ([Schwartz et al., 2006]). The minimal inhibitory concentration (MIC) was determined in a microdilution assay using Mueller-Hinton (MH) broth following a previously published protocol ([Wiegand et al., 2008]). Briefly, a twofold serial dilution of the antibiotics and peptides were prepared and added to a bacteria solution, resulting in 2–5 10^5 CFU/ml. The microtiter plates (polypropylene, Corning) were incubated for 18 h at 37°C and MICs were taken visually.

[2] = tested on: MDR P. aeruginosa PA253; test: microbe, parasite or virus in culture; format: cell-based, Pseudomonas aeruginosa
Method: as §1

[3] = tested on: MDR P. aeruginosa PA 910; test: microbe, parasite or virus in culture; format: cell-based, Pseudomonas aeruginosa; details: MDR PA 910, 18 h
Method: as §1

[4] = tested on: P. aeruginosa PA01-wt; test: microbe, parasite or virus in culture; format: cell-based, Pseudomonas aeruginosa
Method: as §1

[5] = tested on: MDR isolate of P. aeruginosa (PA 910); details: checkerboard, MHb
Method: The checkerboard assay was used to determine the fractional inhibitory concentrations (FICs), following the protocol described in Koneman’s Color Atlas and Textbook of Diagnostic Microbiology ([Winn et al., 2006]). Briefly, combinations of peptides and antibiotics were prepared in 96-well plates (polypropylene, Corning) in a twofold dilution series. After the addition of a log-phase bacterial inoculum of 2–5 × 10^5 CFU/ml, plates were incubated at 37°C for 18 h. The FICs were determined by visual inspection and the effects of the combinations were determined using the FICs. The FIC was computed by adding two partial FIC values, FICA—the MIC of drug A, tested in combination with drug B divided by the MIC of drug A, tested alone and FICB—the MIC of drug B, tested in combination with drug A divided by the MIC of drug B, tested alone [FIC = FICA + FICB = (MICAB/MICA) + (MICBA/MICB), where MICA and MICB are the MICs of drugs A and B alone, respectively, and MICAB and MICBA are the MIC concentrations of the drugs in combination]. Here we use the European Committee for Antimicrobial Susceptibility Testing (EUCAST) definition, which is very similar to the definition provided by [Odds, 2003], except Odds define additive effects when FIC values are between 0.5 and 1 ([European Committee for Antimicrobial Susceptibility Testing [EUCAST] of the European Society of Clinical Microbiology and Infectious Diseases [ESCMID], 2000]; [Odds, 2003]). The combination of peptide (drug A) and antibiotics (drug B) was defined as synergistic if the FIC was ≤ 0.5, indifferent if the FIC was > 0.5 but ≤ 4.0 and antagonistic if the FIC was > 4.0.

[6] = short AMPs, microdilution, Mueller-Hinton broth, 18 h at 37°C, read visually, triplicate (n = 3)

| Compound | MIC against MDR isolates of PA, PA919 ([1]; MDR PA 919, 18 h) | MIC against MDR isolates of PA, PA253 ([2]; MDR PA253, 18 h) | MIC against PA910 in μM (peptides, Table 4) [3] | MIC against PA01 wt ([4]; -wt, 18 h) | further results |
| --- | --- | --- | --- | --- | --- |
| CC[C@H](C)[C@H](NC(=O)[C@H](CCCNC(=N)N)NC(=O)[C@H](C)NC(=O)[C@H](CC(C)C)NC(=O)[C@@H](N)CCCNC(=N)N)C(=O)N[C@H](C(=O)N[C@H](C(=O)N[C@H](C(=O)N[C@@H](CCCNC(=N)N)C(=O)N[C@H](C(=O)N[C@@H](C)C(=O)N[C@@H](CCCNC(=N)N)C(N)=O)C(C)C)[C@@H](C)CC)C(C)C)C(C)C [Bac2a] (H-RLARIVVIRVAR-NH2) | 16 µM | 32 µM | 32 µM (≈ 45.5 µg/mL) | 16 µM (≈ 22.7 µg/mL) | – |
| N=C(N)NCCC[C@H](NC(=O)[C@H](CCCNC(=N)N)NC(=O)[C@@H](N)Cc1ccccc1)C(=O)N[C@@H](Cc1c[nH]c2ccccc12)C(=O)N[C@@H](Cc1c[nH]c2ccccc12)C(=O)N[C@@H](CCCCN)C(=O)N[C@@H](Cc1c[nH]c2ccccc12)C(=O)N[C@@H](Cc1ccccc1)C(=O)N[C@@H](CCCCN)C(N)=O [HHC-53] (H-FRRWWKWFK-NH2) | 16 µM | 8 µM | 32 µM (≈ 46 µg/mL) | 8 µM (≈ 11.5 µg/mL) | – |
| CC[C@H](C)[C@H](N)C(=O)N[C@@H](CC(C)C)C(=O)N1CCC[C@H]1C(=O)N[C@@H](Cc1c[nH]c2ccccc12)C(=O)N[C@@H](CCCCN)C(=O)N[C@@H](Cc1c[nH]c2ccccc12)C(=O)N1CCC[C@H]1C(=O)N[C@@H](Cc1c[nH]c2ccccc12)C(=O)N[C@@H](Cc1c[nH]c2ccccc12)C(=O)N1CCC[C@H]1C(=O)N[C@@H](Cc1c[nH]c2ccccc12)C(=O)N[C@@H](CCCNC(=N)N)C(=O)N[C@@H](CCCNC(=N)N)C(N)=O [Indolic., indolicidin] | – | – | – | – | MIC against MDR isolates of PA, PA919 [1, 6]: 32 µM; MIC against MDR isolates of PA, PA253 [2, 6]: 64 to 128 µM; MIC against PA01 wt [4, 6]: 8 µM (≈ 15.3 µg/mL); FIC mean (SD), combination with CET ([5]; confirmation study, peptide + ceftazidime, Indopt versions 1/8 MHb, mean of at least three measurements (n = 3), SD in brackets): 0.71 (0.21); FIC, combination with AMI ([5]; peptide + amikacin, for the Indopt versions 1/8 MHb, 2–5 × 10^5 CFU/ml, 37°C, 18 h, visual, determined once (n = 1)): 0.75; FIC, combination with CEF ([5]; peptide + cefepime, for the Indopt versions 1/8 MHb, 2–5 × 10^5 CFU/ml, 37°C, 18 h, visual, determined once (n = 1)): 2; FIC, combination with CET ([5]; peptide + ceftazidime, for the Indopt versions 1/8 MHb, 2–5 × 10^5 CFU/ml, 37°C, 18 h, visual, determined once (n = 1)): 0.51; FIC, combination with CIP ([5]; peptide + ciprofloxacin, for the Indopt versions 1/8 MHb, 2–5 × 10^5 CFU/ml, 37°C, 18 h, visual, determined once (n = 1)): 0.5; FIC, combination with ERY ([5]; peptide + erythromycin, for the Indopt versions 1/8 MHb, 2–5 × 10^5 CFU/ml, 37°C, 18 h, visual, determined once (n = 1)): 0.63; FIC, combination with GEN ([5]; peptide + gentamycin, for the Indopt versions 1/8 MHb, 2–5 × 10^5 CFU/ml, 37°C, 18 h, visual, determined once (n = 1)): 0.5; FIC, combination with IMI ([5]; peptide + imipenem, for the Indopt versions 1/8 MHb, 2–5 × 10^5 CFU/ml, 37°C, 18 h, visual, determined once (n = 1)): 0.63; FIC, combination with KAN ([5]; peptide + kanamycin, for the Indopt versions 1/8 MHb, 2–5 × 10^5 CFU/ml, 37°C, 18 h, visual, determined once (n = 1)): 0.75; FIC, combination with MER ([5]; peptide + meropenem, for the Indopt versions 1/8 MHb, 2–5 × 10^5 CFU/ml, 37°C, 18 h, visual, determined once (n = 1)): 0.63; FIC, combination with PIP ([5]; peptide + piperacillin, for the Indopt versions 1/8 MHb, 2–5 × 10^5 CFU/ml, 37°C, 18 h, visual, determined once (n = 1)): 0.56; FIC, combination with PMB ([5]; peptide + polymyxin B, for the Indopt versions 1/8 MHb, 2–5 × 10^5 CFU/ml, 37°C, 18 h, visual, determined once (n = 1)): 0.25; FIC, combination with TET ([5]; peptide + tetracycline, for the Indopt versions 1/8 MHb, 2–5 × 10^5 CFU/ml, 37°C, 18 h, visual, determined once (n = 1)): 1; FIC, combination with TOB ([5]; peptide + tobramycin, for the Indopt versions 1/8 MHb, 2–5 × 10^5 CFU/ml, 37°C, 18 h, visual, determined once (n = 1)): 0.5 |
| CC[C@H](C)[C@H](NC(=O)[C@@H](N)Cc1ccccc1)C(=O)N[C@@H](CCCCN)C(=O)N[C@@H](Cc1c[nH]c2ccccc12)C(=O)N[C@@H](CCCCN)C(=O)N[C@@H](CCCCN)C(=O)N[C@@H](CCCNC(=N)N)C(=O)N[C@@H](Cc1c[nH]c2ccccc12)C(=O)N[C@@H](Cc1c[nH]c2ccccc12)C(=O)N[C@@H](CCCCN)C(=O)N[C@@H](CCCCN)C(=O)N[C@@H](CCCNC(=N)N)C(=O)N[C@H](C(N)=O)[C@@H](C)O [Indopt 1] (H-FIKWKKRWWKKRT-NH2) | 32 µM | 16 µM | 8 µM (≈ 15.1 µg/mL) | 4 µM (≈ 7.56 µg/mL) | – |
| CC[C@H](C)[C@H](NC(=O)[C@@H](N)Cc1ccccc1)C(=O)N[C@@H](CCCCN)C(=O)N[C@@H](Cc1c[nH]c2ccccc12)C(=O)N[C@@H](CCCNC(=N)N)C(=O)N[C@@H](Cc1ccccc1)C(=O)N[C@@H](CCCNC(=N)N)C(=O)N[C@@H](CCCNC(=N)N)C(=O)N[C@@H](Cc1c[nH]c2ccccc12)C(=O)N[C@@H](CCCCN)C(=O)N[C@@H](CCCCN)C(=O)N[C@@H](CCCNC(=N)N)C(=O)N[C@H](C(N)=O)[C@@H](C)O [Indopt 2] (H-FIKWRFRRWKKRT-NH2) | 32 µM | 16 µM | 8 µM (≈ 15.3 µg/mL) | 4 µM (≈ 7.63 µg/mL) | – |
| CC[C@H](C)[C@H](NC(=O)[C@@H](N)Cc1ccccc1)C(=O)N[C@@H](CCCCN)C(=O)N[C@@H](Cc1c[nH]c2ccccc12)C(=O)N[C@@H](CCCNC(=N)N)C(=O)N[C@@H](CO)C(=O)N[C@@H](CCCNC(=N)N)C(=O)N[C@@H](Cc1c[nH]c2ccccc12)C(=O)N[C@@H](Cc1c[nH]c2ccccc12)C(=O)N[C@@H](CCCCN)C(=O)N[C@@H](CCCCN)C(=O)N[C@@H](CCCNC(=N)N)C(=O)N[C@H](C(N)=O)[C@@H](C)O [Indopt 3] (H-FIKWRSRWWKKRT-NH2) | 32 µM | 16 µM | 8 µM (≈ 15 µg/mL) | 4 µM (≈ 7.51 µg/mL) | – |
| CC[C@H](C)[C@H](NC(=O)[C@@H](N)Cc1ccccc1)C(=O)N[C@@H](CCCCN)C(=O)N[C@@H](Cc1c[nH]c2ccccc12)C(=O)N[C@@H](CCCNC(=N)N)C(=O)N[C@@H](Cc1ccccc1)C(=O)N[C@@H](CCCNC(=N)N)C(=O)N[C@@H](CCCNC(=N)N)C(=O)N[C@@H](Cc1c[nH]c2ccccc12)C(=O)N[C@@H](CCCCN)C(=O)N[C@@H](CCCCN)C(=O)N[C@@H](CCCNC(=N)N)C(=O)N[C@@H](CCCCN)C(N)=O [Indopt 4] (H-FIKWRFRRWKKRK-NH2) | 16 to 32 µM | 8 µM | 4 to 8 µM | 4 µM (≈ 7.74 µg/mL) | MIC against MDR isolates of PA, PA910 [3]: 4 to 8 µM |
| CC[C@H](C)[C@H](NC(=O)[C@@H](N)Cc1ccccc1)C(=O)N[C@@H](CCCCN)C(=O)N[C@@H](Cc1c[nH]c2ccccc12)C(=O)N[C@@H](CCCCN)C(=O)N[C@@H](Cc1ccccc1)C(=O)N[C@@H](CCCNC(=N)N)C(=O)N1CCC[C@H]1C(=O)N[C@@H](Cc1c[nH]c2ccccc12)C(=O)N[C@@H](CCCCN)C(=O)N[C@@H](CCCCN)C(=O)N[C@@H](CCCNC(=N)N)C(=O)N[C@H](C(N)=O)[C@@H](C)O [Indopt 5] (H-FIKWKFRPWKKRT-NH2) | 16 to 32 µM | 16 µM | 8 µM (≈ 14.6 µg/mL) | 4 µM (≈ 7.28 µg/mL) | – |
